The results in this text go back to patent US11999716B2, “WDR5 inhibitors and modulators” (priority 2018, dated 2024).

For the first experiment, the system named is MV4:11 human cancer cell lines. As to the kind of experiment: Cellular viability / anti-proliferative activity, CellTiter-Glo, 5 day protocol. The class given is cell-based. Particulars: Homo sapiens, MV4-11, 120 h, MV4:11 cells; 5 day incubation; CellTiter-Glo; mean of minimum two replicates; read-out: GI50 on cellular proliferation of MV4:11 human cancer cell lines. The gist of the method: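 Compounds were tested over 22 two-fold dilutions starting at 30 μM in 0.3% DMSO, with 200 cells per well (7200 cells/mL). Viability was measured by CellTiter-Glo luminescence at day 5.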
(In ATP-based viability assays light output follows the ATP content of the culture.)
With `Cc1nccn1Cc1cc2c(c(-c3cn(C)nc3C(F)(F)F)c1)CCN(Cc1cccc(-c3ccsc3)c1)C2=O` [Example 231, 7-((2-Methyl-1H-imidazol-1-yl)methyl)-5-(1-methyl-3-(trifluoromethyl)-1H-pyrazol-4-yl)-2-(3-(thiophen-3-yl)benzyl)-3,4-dihydroisoquinolin-1(2H)-one], the GI50 was found to be 550 nM.

As for `COc1ccnc(CN2CCc3c(cc(CNc4nnc5ccccn45)cc3-c3cn(C)nc3C(F)(F)F)C2=O)c1` [Example 135, 7-(([1,2,4]Triazolo[4,3-a]pyridin-3-ylamino)methyl)-2-((4-methoxypyridin-2-yl)methyl)-5-(1-methyl-3-(trifluoromethyl)-1H-pyrazol-4-yl)-3,4-dihydroisoquinolin-1(2H)-one], the GI50 was greater than 938 nM. Still for that read-out and setting: then `CCc1ccnc([C@H](C)N2CCc3c(cc(Cn4ccnc4)cc3-c3cn(C)nc3C(F)(F)F)C2=O)c1` [Example 191, (S)-7-((1H-Imidazol-1-yl)methyl)-2-(1-(4-ethylpyridin-2-yl)ethyl)-5-(1-methyl-3-(trifluoromethyl)-1H-pyrazol-4-yl)-3,4-dihydroisoquinolin-1(2H)-one], with less than 50 nM. The same measure, in the same setting: with `COc1ccnc([C@H](C)N2CCc3c(cc(Cn4ccnc4C)cc3-c3cncnc3C(F)(F)F)C2=O)c1` [Example 249, (S)-2-(1-(4-Methoxypyridin-2-yl)ethyl)-7-((2-methyl-1H-imidazol-1-yl)methyl)-5-(4-(trifluoromethyl)pyrimidin-5-yl)-3,4-dihydroisoquinolin-1(2H)-one] the figure was 1970 nM. The same measure, in the same setting: with `COc1cc(CN2CCc3c(cc(Cn4cnn(C)c4=N)cc3-c3cn(C)nc3C(F)(F)F)C2=O)cc(OC)c1` [Example 122, 2-(3,5-Dimethoxybenzyl)-7-((5-imino-1-methyl-1,5-dihydro-4H-1,2,4-triazol-4-yl)methyl)-5-(1-methyl-3-(trifluoromethyl)-1H-pyrazol-4-yl)-3,4-dihydroisoquinolin-1(2H)-one] the figure was less than 50 nM; with `COc1ccnc(CN2CCc3c(cc(Cn4ccn(C)c4=N)cc3-c3cccnc3C)C2=O)c1` [Example 60, 7-((2-Imino-3-methyl-2,3-dihydro-1H-imidazol-1-yl)methyl)-2-((4-methoxypyridin-2-yl)methyl)-5-(2-methylpyridin-3-yl)-3,4-dihydroisoquinolin-1(2H)-one], greater than 938 nM.

Regarding `Cc1nccn1Cc1cc2c(c(-c3cn(C)nc3C(F)(F)F)c1)CCN(c1ccccc1OC(F)(F)F)C2=O` [Example 255, 7-((2-Methyl-1H-imidazol-1-yl)methyl)-5-(1-methyl-3-(trifluoromethyl)-1H-pyrazol-4-yl)-2-(2-(trifluoromethoxy)phenyl)-3,4-dihydroisoquinolin-1(2H)-one], the GI50 was determined as 2790 nM. Take `Cc1nccn1Cc1cc2c(c(-c3cn(C)nc3C(F)(F)F)c1)CCN(Cc1cc(Br)ccn1)C2=O` [Example 205, 2-((4-Bromopyridin-2-yl)methyl)-7-((2-methyl-1H-imidazol-1-yl)methyl)-5-(1-methyl-3-(trifluoromethyl)-1H-pyrazol-4-yl)-3,4-dihydroisoquinolin-1(2H)-one]: the GI50 is less than 50 nM. Same read-out and setting: then `COc1ccnc(CN2Cc3c(cc(Cn4ccn(C)c4=N)cc3C3CC3)C2=O)c1` [Example 136, 4-Cyclopropyl-6-((2-imino-3-methyl-2,3-dihydro-1H-imidazol-1-yl)methyl)-2-((4-methoxypyridin-2-yl)methyl)isoindolin-1-one], with greater than 938 nM. With `COc1cc(CN2CCc3c(cc(Cn4ccccc4=N)cc3-c3ccc(F)cc3C)C2=O)cc(OC)c1` [Example 116, 2-(3,5-Dimethoxybenzyl)-5-(4-fluoro-2-methylphenyl)-7-((2-iminopyridin-1(2H)-yl)methyl)-3,4-dihydroisoquinolin-1(2H)-one], the GI50 was found to be 268 nM. For `CCn1cc(-c2cc(Cn3ccn(C)c3=N)cc3c2CCN(Cc2cc(C)nn2C)C3=O)c(C(F)(F)F)n1` [Example 74], the GI50 was greater than 938 nM. The same measure, in the same setting: then `Cc1nccn1Cc1cc2c(c(-c3cn(C)nc3C(F)(F)F)c1)CCN(c1cnccc1-c1ccccc1)C2=O` [Example 246, 7-((2-Methyl-1H-imidazol-1-yl)methyl)-5-(1-methyl-3-(trifluoromethyl)-1H-pyrazol-4-yl)-2-(4-phenylpyridin-3-yl)-3,4-dihydroisoquinolin-1(2H)-one], with 1870 nM; and `Cc1cc(CN2CCc3c(cc(Cn4ccnc4C)cc3-c3ccccc3)C2=O)ccc1Cl` [Example 5, 2-(4-Chloro-3-methylbenzyl)-7-((2-methyl-1H-imidazol-1-yl)methyl)-5-phenyl-3,4-dihydroisoquinolin-1(2H)-one], with greater than 938 nM; and `COc1cncc(CN2CCc3c(cc(Cn4ccnc4C)cc3-c3cn(C)nc3C(F)(F)F)C2=O)c1` [Example 228, 2-((5-Methoxypyridin-3-yl)methyl)-7-((2-methyl-1H-imidazol-1-yl)methyl)-5-(1-methyl-3-(trifluoromethyl)-1H-pyrazol-4-yl)-3,4-dihydroisoquinolin-1(2H)-one], with less than 50 nM. For `CCn1cc(-c2cc(Cc3nccn3C)cc3c2CCN([C@@H](C)c2cc(OC)ccn2)C3=O)c(C(F)(F)F)n1` [Example 254, (S)-5-(1-Ethyl-3-(trifluoromethyl)-1H-pyrazol-4-yl)-2-(1-(4-methoxypyridin-2-yl)ethyl)-7-((1-methyl-1H-imidazol-2-yl)methyl)-3,4-dihydroisoquinolin-1(2H)-one], the GI50 was 1340 nM. With `COc1ccnc(CN2CCc3c(cc(CNC(=N)C4CC4)cc3-c3cn(C)nc3C)C2=O)c1` [Example 119, N-((5-(1,3-Dimethyl-1H-pyrazol-4-yl)-2-((4-methoxypyridin-2-yl)methyl)-1-oxo-1,2,3,4-tetrahydroisoquinolin-7-yl)methyl)cyclopropanecarboximidamide], the GI50 was greater than 938 nM. Still for that read-out and setting: with `CCc1nccn1Cc1cc2c(c(-c3cc(C)nc(C)c3)c1)CCN(Cc1cc(OC)cc(OC)c1)C2=O` [Example 155, 2-(3,5-Dimethoxybenzyl)-5-(2,6-dimethylpyridin-4-yl)-7-((2-ethyl-1H-imidazol-1-yl)methyl)-3,4-dihydroisoquinolin-1(2H)-one] the figure was 407 nM. The same measure, in the same setting: with `Cc1cnnc(CN2CCc3c(cc(Cn4ccnc4C)cc3-c3cn(C)nc3C(F)(F)F)C2=O)c1` [Example 232, 7-((2-Methyl-1H-imidazol-1-yl)methyl)-5-(1-methyl-3-(trifluoromethyl)-1H-pyrazol-4-yl)-2-((5-methylpyridazin-3-yl)methyl)-3,4-dihydroisoquinolin-1(2H)-one] the figure was 199 nM; with `COc1cc(CN2CCc3c(cc(Cn4cnn(C)c4=N)cc3-c3ccc(F)cc3C)C2=O)cc(OC)c1` [Example 121, 2-(3,5-Dimethoxybenzyl)-5-(4-fluoro-2-methylphenyl)-7-((5-imino-1-methyl-1,5-dihydro-4H-1,2,4-triazol-4-yl)methyl)-3,4-dihydroisoquinolin-1(2H)-one], 134 nM; with `Cc1ccnc([C@H](C2CC2)N2CCc3c(cc(Cn4ccnc4)cc3-c3ccc(F)cc3C)C2=O)c1` [Example 184, (S)-7-((1H-Imidazol-1-yl)methyl)-2-(cyclopropyl(4-methylpyridin-2-yl)methyl)-5-(4-fluoro-2-methylphenyl)-3,4-dihydroisoquinolin-1(2H)-one], 125 nM. The same measure, in the same setting: with `CCc1ccnc([C@H](C)N2CCc3c(cc(Cn4ccnc4C)cc3-c3cn(C)nc3C(F)(F)F)C2=O)c1` [Example 175, (S)-2-(1-(4-Ethylpyridin-2-yl)ethyl)-7-((2-methyl-1H-imidazol-1-yl)methyl)-5-(1-methyl-3-(trifluoromethyl)-1H-pyrazol-4-yl)-3,4-dihydroisoquinolin-1(2H)-one] the figure was less than 50 nM; with `COc1ccnc(CN2CCc3c(cc(Cn4ccn(C)c4=N)cc3-c3ccc(F)cc3C)C2=O)c1` [Example 52, 5-(4-fluoro-2-methylphenyl)-7-((2-imino-3-methyl-2,3-dihydro-1H-imidazol-1-yl)methyl)-2-((4-methoxypyridin-2-yl)methyl)-3,4-dihydroisoquinolin-1(2H)-one], less than 50 nM; with `Cc1ccnc(CN2CCc3c(cc(Cn4ccn(C)c4=N)cc3-c3cn(C)nc3C(F)(F)F)C2=O)c1` [Example 53, 7-((2-Imino-3-methyl-2,3-dihydro-1H-imidazol-1-yl)methyl)-5-(1-methyl-3-(trifluoromethyl)-1H-pyrazol-4-yl)-2-((4-methylpyridin-2-yl)methyl)-3,4-dihydroisoquinolin-1(2H)-one], less than 50 nM.

Staying with this experiment, now noted: Homo sapiens, MV4-11, 120 h, read-out: GI50 on cellular proliferation of MV4:11 human cancer cell lines.
On to `Cc1ccnc(C(C2CC2)N2CCc3c(cc(Cn4ccn(C)c4=N)cc3-c3ccc(F)cc3C)C2=O)c1` (centres unmarked) [Example 30, 2-(Cyclopropyl(4-methylpyridin-2-yl)methyl)-5-(4-fluoro-2-methylphenyl)-7-((2-imino-3-methyl-2,3-dihydro-1H-imidazol-1-yl)methyl)-3,4-dihydroisoquinolin-1(2H)-one], for which the GI50 came to 95 nM.

Turning to `CCn1cc(-c2cc(Cc3cnc[nH]3)cc3c2CCN([C@@H](C)c2cc(OC)ccn2)C3=O)c(C(F)(F)F)n1` [Example 250, (S)-7-((1H-Imidazol-5-yl)methyl)-5-(1-ethyl-3-(trifluoromethyl)-1H-pyrazol-4-yl)-2-(1-(4-methoxypyridin-2-yl)ethyl)-3,4-dihydroisoquinolin-1(2H)-one], the GI50 was less than 50 nM.

In the case of `CCn1cc(-c2cc(Cc3cncn3C)cc3c2CCN([C@@H](C)c2cc(OC)ccn2)C3=O)c(C(F)(F)F)n1` [Example 257, (S)-5-(1-Ethyl-3-(trifluoromethyl)-1H-pyrazol-4-yl)-2-(1-(4-methoxypyridin-2-yl)ethyl)-7-((1-methyl-1H-imidazol-5-yl)methyl)-3,4-dihydroisoquinolin-1(2H)-one], the GI50 was less than 50 nM.
